Experimental data taken from ChEMBL document CHEMBL5154900, “Design and Synthesis of Dual EZH2/BRD4 Inhibitors to Target Solid Tumors” (J Med Chem, 2022).
Calls of active or inactive are those of the source. The rule behind the calls is not given here.

What was measured:
[1] = Permeability of compound across apical to basolateral side in human Caco-2 cells measured for 1 to 3 hrs by LC-MS analysis; format: ADME, cell-based; conditions: time 1-3 hrs
[2] = Cmax in 12 hr fasted BALB/c mouse at 80 mg/kg, po measured for 0.083 to 24 hrs by UPLC-MS/MS analysis; format: ADME, organism-based; parameters: dose 80 mg/kg, time 0.083-24 hrs, route po; conditions: in vivo
A549 [3] = assay: Induction of apoptosis in human A549 cells assessed as upregulation of p21 protein at 1 uM inubated for 72 hrs by Western blot analysis; format: functional, cell-based
ASPC1 [4] = assay: Effect on ADRB2 mRNA levels in human ASPC1 cells at 5 uM incubated for 48 hrs by RT-qPCR analysis; format: functional, cell-based
[5] = AUC in 12 hr fasted BALB/c mouse at 80 mg/kg, ip measured for 0.083 to 24 hrs by UPLC-MS/MS analysis; format: ADME, organism-based; parameters: time lower 0.083 hrs, dose 80 mg/kg, time upper 24 hrs, route ip; conditions: in vivo
HCT-116 [6] = assay: Induction of apoptosis in human HCT116 cells assessed as downregulation of Bcl-2 protein at 1 uM inubated for 72 hrs by Western blot analysis; format: functional, cell-based
[7] = target: T1, Bromodomain-containing protein 4 (Homo sapiens, UniProt O60885); assay: Displacement of fluorescein-labeled JQ1 from His6/TEV cleavage site fused human BRD4 (residues N44 to E168) expressed in Escherichia coli BL21 (DE3) incubated for 60 min by Fluorescence polarization assay
ASPC1 [8] = assay: Effect on TXINP mRNA levels in human ASPC1 cells at 5 uM incubated for 48 hrs by RT-qPCR analysis; format: functional, cell-based
HCT-116 [9] = assay: Induction of apoptosis in human HCT116 cells assessed as early apoptotic cells at 10 uM measured after 72 hrs by flow cytometry (reference value: 2.8 %); format: functional
A549 [10] = assay: Effect on TNFRSF21 mRNA levels in human A549 cells at 5 uM incubated for 48 hrs by RT-qPCR analysis; format: functional, cell-based
[11] = target: T1, Bromodomain-containing protein 4; assay: Binding affinity to BRD4 in human A549 cell lysate assessed as increase in thermal stability at 10 uM incubated for 1 hr followed by temperature treatment at 45 to 54.5 degC for 3 mins by thermal shift assay; format: subcellular; conditions: time 63.0 min
HCT-116 [12] = assay: Antitumor activity against human HCT-116 cells assessed as inhibition of colony formation measured after 12 to 20 days by crystal violet staining based analysis; format: functional, cell-based; conditions: dose <= 0.4 µM, time 12-20 day, DDE = dose-dependent effect
[13] = target: T1, Bromodomain-containing protein 4; assay: Inhibition of BRD4 in human ASPC1 cells assessed as decrease in c-Myc level at 1 uM incubated for 72 hrs by Western blot analysis; format: cell-based
ASPC1 [14] = assay: Induction of apoptosis in human ASPC-1 cells assessed as upregulation of p21 protein at 1 uM inubated for 72 hrs by Western blot analysis; format: functional, cell-based
[15] = target: T2, Histone-lysine N-methyltransferase EZH2 (Homo sapiens, UniProt Q15910); assay: Inhibition of EZH2 in human A549 cells assessed as decrease in H3K27me3 level at 0.05 uM incubated for 72 hrs by Western blot analysis; format: cell-based
Target sequence in this assay (Q15910 whole entry, looked up): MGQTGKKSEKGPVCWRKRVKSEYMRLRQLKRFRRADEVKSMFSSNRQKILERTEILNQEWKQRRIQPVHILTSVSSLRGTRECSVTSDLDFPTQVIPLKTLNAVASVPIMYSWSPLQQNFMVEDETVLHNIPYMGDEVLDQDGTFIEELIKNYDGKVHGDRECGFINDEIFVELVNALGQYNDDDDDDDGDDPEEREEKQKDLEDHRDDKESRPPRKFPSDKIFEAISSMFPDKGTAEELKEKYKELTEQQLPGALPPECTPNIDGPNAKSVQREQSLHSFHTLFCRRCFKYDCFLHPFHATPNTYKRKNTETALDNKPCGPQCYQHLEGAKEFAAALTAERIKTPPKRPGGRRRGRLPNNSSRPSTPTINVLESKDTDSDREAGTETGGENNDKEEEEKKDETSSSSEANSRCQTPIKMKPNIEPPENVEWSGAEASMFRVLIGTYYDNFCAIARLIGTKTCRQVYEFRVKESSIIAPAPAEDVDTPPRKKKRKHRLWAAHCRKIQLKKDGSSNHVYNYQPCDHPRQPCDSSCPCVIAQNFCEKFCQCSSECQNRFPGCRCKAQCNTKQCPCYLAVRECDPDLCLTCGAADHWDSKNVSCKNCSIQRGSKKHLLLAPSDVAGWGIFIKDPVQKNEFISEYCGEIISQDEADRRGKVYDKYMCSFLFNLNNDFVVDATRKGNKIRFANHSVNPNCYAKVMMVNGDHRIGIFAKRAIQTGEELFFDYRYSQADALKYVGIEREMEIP

[16] = Half life in 12 hr fasted BALB/c mouse at 80 mg/kg, po measured for 0.083 to 24 hrs by UPLC-MS/MS analysis; format: ADME, organism-based; conditions: in vivo, time 0.083-24 hrs
[17] = Clearance in 12 hr fasted BALB/c mouse at 80 mg/kg, ip measured for 0.083 to 24 hrs by UPLC-MS/MS analysis; format: ADME, organism-based; conditions: in vivo, time 0.083-24 hrs
ASPC1 [18] = assay: Induction of apoptosis in human ASPC-1 cells assessed as downregulation of Bcl-2 protein at 1 uM inubated for 72 hrs by Western blot analysis; format: functional, cell-based
A549 [19] = assay: Antitumor activity against human A549 cells xenografted in BALB/c mouse assessed as reduction in tumor volume at 60 mg/kg, ip administered 6 times weekly for 38 days and measured every 3 days relative to control; format: functional; parameters: scale not given: the % may be the effect or the level left; conditions: time 38 day
A549 [20] = assay: Effect on ADRB2 mRNA levels in human A549 cells at 5 uM incubated for 48 hrs by RT-qPCR analysis; format: functional, cell-based
A549 [21] = assay: Antitumor activity against human A549 cells assessed as inhibition of colony formation measured after 12 to 20 days by crystal violet staining based analysis; format: functional, cell-based; conditions: dose <= 0.4 µM, time 12-20 day, DDE = dose-dependent effect
A549 [22] = assay: Induction of apoptosis in human A549 cells assessed as downregulation of Bcl-2 protein at 1 uM inubated for 72 hrs by Western blot analysis; format: functional, cell-based
[23] = target: T2, Histone-lysine N-methyltransferase EZH2
Target sequence in this assay (Q15910 whole entry): as the sequence (Q15910 whole entry, looked up) above

HCT-116 [24] = assay: Induction of apoptosis in human HCT116 cells assessed as downregulation of Bcl-xl protein at 1 uM inubated for 72 hrs by Western blot analysis; format: functional, cell-based
ASPC1 [25] = assay: Antitumor activity against human ASPC1 cells xenografted in BALB/c mouse assessed as tumor growth inhibition at 80 mg/kg, ip administered 3 times weekly for 28 days and measured every 3 days relative to control; format: functional; parameters: scale not given: the % may be the effect or the level left; conditions: time 28 day
[26] = target: T2, Histone-lysine N-methyltransferase EZH2; assay: Binding affinity to EZH2 in human A549 cell lysate assessed as increase in thermal stability at 10 uM incubated for 1 hr followed by temperature treatment at 45 to 54.5 degC for 3 mins by thermal shift assay; format: subcellular; conditions: time 63.0 min
Target sequence in this assay (Q15910 whole entry, looked up): as above

[27] = Tmax in 12 hr fasted BALB/c mouse at 80 mg/kg, ip measured for 0.083 to 24 hrs by UPLC-MS/MS analysis; format: ADME, organism-based; conditions: in vivo, time 0.083-24 hrs
[28] = Toxicity in BALB/c mouse xenografted with human A549 cells assessed as adverse effects at 60 mg/kg, ip administered 6 times weekly for 38 days; format: organism-based; conditions: in vivo, 912 h, time 38 day
HCT-116 [29] = assay: Effect on TRHDE mRNA levels in human HCT-116 cells at 5 uM incubated for 48 hrs by RT-qPCR analysis; format: functional, cell-based
A549 [30] = assay: Antitumor activity against human A549 cells xenografted in BALB/c mouse assessed as tumor growth inhibition at 80 mg/kg, ip administered 3 times weekly for 40 days and measured every 3 days relative to control; format: functional; parameters: scale not given: the % may be the effect or the level left; conditions: time 40 day
A549 [31] = assay: Induction of apoptosis in human A549 cells assessed as downregulation of Bcl-xl protein at 1 uM inubated for 72 hrs by Western blot analysis; format: functional, cell-based
HCT-116 [32] = assay: Effect on TNFRSF21 mRNA levels in human HCT-116 cells at 5 uM incubated for 48 hrs by RT-qPCR analysis; format: functional, cell-based
ASPC1 [33] = assay: Effect on TRHDE mRNA levels in human ASPC1 cells at 5 uM incubated for 48 hrs by RT-qPCR analysis; format: functional, cell-based
[34] = target: T2, Histone-lysine N-methyltransferase EZH2; assay: Inhibition of EZH2 in human HCT-116 cells assessed as decrease in H3K27me3 level at 0.05 uM incubated for 72 hrs by Western blot analysis; format: cell-based
Target sequence in this assay (Q15910 whole entry, looked up): as above

[35] = AUC in 12 hr fasted BALB/c mouse at 80 mg/kg, po measured for 0.083 to 24 hrs by UPLC-MS/MS analysis; format: ADME, organism-based; parameters: time upper 24 hrs, dose 80 mg/kg, time lower 0.083 hrs, route po; conditions: in vivo
[36] = target: T2, Histone-lysine N-methyltransferase EZH2; assay: Inhibition of EZH2 in human ASPC1 cells assessed as decrease in H3K27me3 level at 0.05 uM incubated for 72 hrs by Western blot analysis; format: cell-based
Target sequence in this assay (Q15910 whole entry, looked up): as above

ASPC1 [37] = assay: Antitumor activity against human ASPC1 cells assessed as inhibition of colony formation measured after 12 to 20 days by crystal violet staining based analysis; format: functional, cell-based; conditions: dose <= 0.1 µM, time 12-20 day, DDE = dose-dependent effect

permeability [1]: Impermeable | Cmax [2]: 4380 ng/mL | AUC [5]: 273 µg·h/mL | IC50 [7]: 34 nM | Activity [11]: Active | inhibition [13]: Active | inhibition [15]: Active | half-life [16]: 4.16 h | CL/F [17]: 4.88 mL/min/kg | IC50 [23]: 490 nM | Activity [26]: Active | Tmax [27]: 1 h | inhibition [34]: Active | AUC [35]: 13.5 µg·h/mL | inhibition [36]: Active
Compound: CCN(c1cc(-c2ccc(OCCCCCNC(=O)C[C@@H]3N=C(c4ccc(Cl)cc4)c4c(sc(C)c4C)-n4c(C)nnc43)cc2)cc(C(=O)NCc2c(C)cc(C)[nH]c2=O)c1C)C1CCOCC1
Activity (A549 [3]): Active | Activity (ASPC1 [4]): Active | Activity (HCT-116 [6]): Active | Activity (ASPC1 [8]): Active | Activity (HCT-116 [9]): 63.4% | Activity (A549 [10]): Active | Activity (HCT-116 [12]): Dde | Activity (ASPC1 [14]): Active | Activity (ASPC1 [18]): Active | Activity (A549 [19]): 63.4% | Activity (A549 [20]): Active | Activity (A549 [21]): Dde | Activity (A549 [22]): Active | Activity (HCT-116 [24]): Active | Activity (ASPC1 [25]): 38.6% | Activity [28]: Non-Toxic | Activity (HCT-116 [29]): Active | Activity (A549 [30]): 62.3% | Activity (A549 [31]): Active | Activity (HCT-116 [32]): Active | Activity (ASPC1 [33]): Active | Activity (ASPC1 [37]): Dde
